Each structure is given as a SMILES string.

The target in the assay is T1, GST-tagged-Wee1 kinase (Homo sapiens, UniProt P30291).
T1 construct: purchased Carnabio 05-177
T1 sequence (P30291 whole entry): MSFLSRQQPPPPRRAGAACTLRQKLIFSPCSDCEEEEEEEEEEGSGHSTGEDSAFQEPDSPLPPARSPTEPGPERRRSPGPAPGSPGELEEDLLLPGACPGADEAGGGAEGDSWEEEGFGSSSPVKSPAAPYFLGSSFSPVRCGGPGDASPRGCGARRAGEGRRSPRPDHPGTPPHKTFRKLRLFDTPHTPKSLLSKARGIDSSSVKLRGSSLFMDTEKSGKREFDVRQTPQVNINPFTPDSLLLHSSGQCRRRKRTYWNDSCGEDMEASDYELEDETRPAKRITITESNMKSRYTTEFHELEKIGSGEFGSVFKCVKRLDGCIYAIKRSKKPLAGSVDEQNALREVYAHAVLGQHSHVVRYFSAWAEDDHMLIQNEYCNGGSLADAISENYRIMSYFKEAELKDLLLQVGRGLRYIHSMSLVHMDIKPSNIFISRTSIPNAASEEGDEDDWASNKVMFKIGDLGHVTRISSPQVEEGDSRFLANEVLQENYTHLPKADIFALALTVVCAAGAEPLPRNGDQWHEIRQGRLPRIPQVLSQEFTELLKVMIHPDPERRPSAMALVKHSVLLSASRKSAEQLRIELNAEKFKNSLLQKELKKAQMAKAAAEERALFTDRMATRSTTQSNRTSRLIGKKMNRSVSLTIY
The assay is described as follows: Wee1 time-resolved fluorescence equilibrium binding assay (displacement of Oregon Green-labeled ATP-competitive probe). Particulars: TR-FRET probe displacement; 2 nM GST-Wee1, 300 nM probe, 1 hour incubation; read-out: Wee-1 binding (Ki nM). How it is done:
Wee1 kinase was assayed using a time-resolved fluorescence equilibrium binding assay monitoring displacement of a rapidly reversible Oregon Green-labeled ATP-competitive kinase probe (N-(2-(2-(2-(4-(4-(5-chloro-4-(2-(1-hydroxycyclobutyl)thiazol-5-yl)-1H-pyrrolo[2,3-b]pyridin-2-yl)phenyl)piperazin-1-yl)ethoxy)ethoxy)ethyl)-2′,7′-difluoro-3′,6′-dihydroxy-3-oxo-3H-spiro[isobenzofuran-1,9′-xanthene]-5-carboxamide) by competitive Wee1 inhibitors.
The term Ki denotes the dissociation constant of the complex between target and ligand, obtained from inhibition or displacement. Turning to `CCCN1c2cc(C(=O)NC)ccc2-c2nc(Nc3ccc(N4CCN(C)CC4)cc3)ncc2S1(=O)=O` [Example 82, N-methyl-2-{[4-(4-methylpiperazin-1-yl)phenyl]amino}-6-propyl-6H-pyrimido[5,4-c][2,1]benzothiazine-8-carboxamide 5,5-dioxide], the Ki came to 10 nM. For `CCCN1c2cc(C(=O)OC)ccc2-c2nc(Nc3ccc(N4CCN(C)CC4)cc3)ncc2S1(=O)=O` [Example 78, methyl 2-{[4-(4-methylpiperazin-1-yl)phenyl]amino}-6-propyl-6H-pyrimido[5,4-c][2,1]benzothiazine-8-carboxylate 5,5-dioxide], the Ki was 6 nM. For `CCCN1c2cc(C(N)=O)ccc2-c2nc(Nc3ccc(N4CCN(C)CC4)cc3)ncc2S1(=O)=O` [Example 79, 2-{[4-(4-methylpiperazin-1-yl)phenyl]amino}-6-propyl-6H-pyrimido[5,4-c][2,1]benzothiazine-8-carboxamide 5,5-dioxide], the inhibition constant Ki was 6 nM. Regarding `CCCN1c2cc(C(=O)N[C@H]3CC[C@H](N)CC3)ccc2-c2nc(Nc3ccc(N4CCN(C)CC4)cc3)ncc2S1(=O)=O` [Example 86, N-(trans-4-aminocyclohexyl)-2-{[4-(4-methylpiperazin-1-yl)phenyl]amino}-6-propyl-6H-pyrimido[5,4-c][2,1]benzothiazine-8-carboxamide 5,5-dioxide], the Ki came out at 4 nM. As for `C=CCN1c2ccccc2-c2nc(Nc3ccc(N4CCNCC4)c(F)c3)ncc2S1(=O)=O` [Example 31, 6-allyl-N-[3-fluoro-4-(piperazin-1-yl)phenyl]-6H-pyrimido[5,4-c][2,1]benzothiazin-2-amine 5,5-dioxide], the Ki was 1.7 nM. For `C=CCN1c2ncccc2-c2nc(Nc3ccc(N4CCNCC4)c(C(F)(F)F)c3)ncc2S1(=O)=O` [Example 51, 6-allyl-N-[4-(piperazin-1-yl)-3-(trifluoromethyl)phenyl]-6H-pyrido[2,3-c]pyrimido[4,5-e][1,2]thiazin-2-amine 5,5-dioxide], the Ki was determined as 14 nM. As to `CN1c2ccccc2-c2nc(Nc3ccc(CN4CCCC4)cc3)ncc2S1(=O)=O` [Example 58, 6-methyl-N-[4-(pyrrolidin-1-ylmethyl)phenyl]-6H-pyrimido[5,4-c][2,1]benzothiazin-2-amine 5,5-dioxide], the Ki amounted to 11 nM. On to `CCCN1c2cc(-c3cccnc3)ccc2-c2nc(Nc3ccc(N4CCN(C)CC4)cc3)ncc2S1(=O)=O` [Example 69, N-[4-(4-methylpiperazin-1-yl)phenyl]-6-propyl-8-(pyridin-3-yl)-6H-pyrimido[5,4-c][2,1]benzothiazin-2-amine 5,5-dioxide], for which the Ki amounted to 4 nM. Turning to `C=CCN1c2ccccc2-c2nc(Nc3ccc(N4CCCCC4)cc3)ncc2S1(=O)=O` [Example 11, 6-allyl-N-[4-(piperidin-1-yl)phenyl]-6H-pyrimido[5,4-c][2,1]benzothiazin-2-amine 5,5-dioxide], the Ki worked out at 31 nM.

As for `C=CCN1c2ccccc2-c2nc(Nc3ccc4c(c3)CN(C)CC4(C)C)ncc2S1(=O)=O` [Example 22, 6-allyl-N-(2,4,4-trimethyl-1,2,3,4-tetrahydroisoquinolin-7-yl)-6H-pyrimido[5,4-c][2,1]benzothiazin-2-amine 5,5-dioxide], the Ki is 1.7 nM. The same measure for `C=CCN1c2ncccc2-c2nc(Nc3ccc(N4CCNCC4)cn3)ncc2S1(=O)=O` [Example 103, N-[5-(piperazin-1-yl)pyridin-2-yl]-6-(prop-2-en-1-yl)-6H-pyrido[2,3-c]pyrimido[4,5-e][1,2]thiazin-2-amine 5,5-dioxide]: 110 nM.

`CCCN1c2cc(C(=O)N(C)C)ccc2-c2nc(Nc3ccc(N4CCN(C)CC4)cc3)ncc2S1(=O)=O` [Example 83, N,N-dimethyl-2-{[4-(4-methylpiperazin-1-yl)phenyl]amino}-6-propyl-6H-pyrimido[5,4-c][2,1]benzothiazine-8-carboxamide 5,5-dioxide]: the Ki worked out at 23 nM. `C=CCN1c2ncccc2-c2nc(Nc3ccc(N4CCNCC4)c(F)c3)ncc2S1(=O)=O` [Example 36, 6-allyl-N-[3-fluoro-4-(piperazin-1-yl)phenyl]-6H-pyrido[2,3-c]pyrimido[4,5-e][1,2]thiazin-2-amine 5,5-dioxide]: the Ki amounted to 9 nM. On to `C=CCN1c2ccccc2-c2nc(Nc3ccc(N4CCN(C)CC4)cc3OC)ncc2S1(=O)=O` [Example 15, 6-allyl-N-[2-methoxy-4-(4-methylpiperazin-1-yl)phenyl]-6H-pyrimido[5,4-c][2,1]benzothiazin-2-amine 5,5-dioxide], for which the Ki was 166 nM. As for `CCCN1c2cc(C(=O)NCc3cccnc3)ccc2-c2nc(Nc3ccc(N4CCN(C)CC4)cc3)ncc2S1(=O)=O` [Example 87, 2-{[4-(4-methylpiperazin-1-yl)phenyl]amino}-6-propyl-N-(pyridin-3-ylmethyl)-6H-pyrimido[5,4-c][2,1]benzothiazine-8-carboxamide 5,5-dioxide], the Ki was 5 nM. Regarding `C=CCN1c2ncccc2-c2nc(Nc3ccc4c(c3)CNCC4)ncc2S1(=O)=O` [Example 33, 6-allyl-N-(1,2,3,4-tetrahydroisoquinolin-7-yl)-6H-pyrido[2,3-c]pyrimido[4,5-e][1,2]thiazin-2-amine 5,5-dioxide], the Ki was 3 nM. Consider `C=CCN1c2c(C(=O)O)cccc2-c2nc(Nc3ccc(N4CCN(C)CC4)cc3)ncc2S1(=O)=O` [Example 59, 6-allyl-2-{[4-(4-methylpiperazin-1-yl)phenyl]amino}-6H-pyrimido[5,4-c][2,1]benzothiazine-7-carboxylic acid 5,5-dioxide], for which the Ki is 141 nM.

With `C=CCN1c2ncccc2-c2nc(Nc3ccc4c(c3)CNCC43CC3)ncc2S1(=O)=O` [Example 54, 6-allyl-N-(2′,3′-dihydro-1′H-spiro[cyclopropane-1,4′-isoquinolin]-7′-yl)-6H-pyrido[2,3-c]pyrimido[4,5-e][1,2]thiazin-2-amine 5,5-dioxide], the Ki was determined as 1.2 nM. For the compound `C=CCN1c2ncccc2-c2nc(Nc3ccc4c(c3)NCCC4)ncc2S1(=O)=O` [Example 38, 6-allyl-N-(1,2,3,4-tetrahydroquinolin-7-yl)-6H-pyrido[2,3-c]pyrimido[4,5-e][1,2]thiazin-2-amine 5,5-dioxide], the Ki stood at 51 nM. The result for `CCCN1c2cc(C(=O)NCCO)ccc2-c2nc(Nc3ccc(N4CCN(C)CC4)cc3)ncc2S1(=O)=O` [Example 84, N-(2-hydroxyethyl)-2-{[4-(4-methylpiperazin-1-yl)phenyl]amino}-6-propyl-6H-pyrimido[5,4-c][2,1]benzothiazine-8-carboxamide 5,5-dioxide] reads 8 nM; that for `CCCN1c2cc(C(=O)NCCOC)ccc2-c2nc(Nc3ccc(N4CCN(C)CC4)cc3)ncc2S1(=O)=O` [Example 85, N-(2-methoxyethyl)-2-{[4-(4-methylpiperazin-1-yl)phenyl]amino}-6-propyl-6H-pyrimido[5,4-c][2,1]benzothiazine-8-carboxamide 5,5-dioxide], 5 nM. Consider `CCCN1c2cc(-c3ccsc3)ccc2-c2nc(Nc3ccc(N4CCN(C)CC4)cc3)ncc2S1(=O)=O` [Example 74, N-[4-(4-methylpiperazin-1-yl)phenyl]-6-propyl-8-(3-thienyl)-6H-pyrimido[5,4-c][2,1]benzothiazin-2-amine 5,5-dioxide], for which the Ki amounted to 20 nM.

The values are drawn from patent US8716297B2, “Chemical entities to be used for Wee1 inhibition for the treatment of cancer” (AbbVie Inc., priority 2011, dated 2014).
